Assay results: patent publication US20130184330A1, “COMPOSITIONS AND METHODS FOR INDUCING CANCER CELL DEATH” (UNIVERSITY OF MIAMI, priority 2010, published 2013)
“Also recorded” adds a separate entry of the source.

Columns and labels:
[1] = tested on: patients with various tumor types; details: in combination with taxotere; cited from earlier work
[2] = tested on: AMPK and eif2-α phosphorylation, GRP78 and CHOP expression in MDA-MB-435 cells; test: Western blot of ATP and ER stress/UPR markers; format: cell-based, human
From the text: (§1) Cell types: Human tumor cell lines 1469 (pancreatic) and MDA-MB-435 (melanoma) were purchased from American Type Culture Collection (ATCC), and maintained in DMEM with 1 g/l of glucose (Mediatech). Mouse embryonic fibroblasts (MEF) that are PERK knock-out and its wild type pair were a kind gift from Dr. Mark Lehrman (University of Southwestern Texas, Dallas, Tex.). MEFs that have wild type eif2-α and eif2-α with its serine51 mutated to alanine were a kind gift from Dr. Glen Barber (University of Miami, Miami, Fla.). All MEFS were maintained in RPMI with 2 g/l of glucose (Invitrogen). All culture media were supplemented with 10% fetal bovine serum (FBS) (Invitrogen), penicillin/streptomycin (Invitrogen) and 0.1% Plasmocin (only for cell passage) (InvivoGen) unless otherwise specified. Cells were grown under 5% CO2 at 37° C.
(§2) Immunoblotting analysis: Cells were seeded onto six-well plates and cultured for 18-22 h to reach 40-70% confluence. Following drug exposure for the indicated times, cells were harvested and lysed with the lysis buffer (100 mM Tris-HCl at pH 7.4, 1% SDS, phosphatase inhibitor cocktail 2 and protease inhibitor cocktail from Sigma-Aldrich). Protein concentrations of each sample were determined using a Micro BCA Protein Assay Kit (Thermo Scientific) according to the manufacturer's directions, and equal amounts of proteins were loaded onto 4-15% Tris-HCl gradient gels (except 12% gels for siRNA experiments) (Bio-Rad). After SDS-PAGE, proteins were transferred onto a polyvinylidene fluoride (PVDF) membrane (Millipore), blocked with 5% milk and probed with corresponding primary antibodies overnight (except 1 h for β-actin). The membrane was washed and probed with secondary antibodies for 1 h. Membrane was then incubated with SuperSignal West Pico or Femto Chemiluminescent Substrate (Thermo Scientific) and signals were visualized on Blue Lite Autorad Films (ISCBioExpress). All primary antibodies were used at 1:1000 dilution except for Atg7 (1:300) and β-actin (1:10000), and the secondary antibodies were used at 1:10000. Representative blots from at least three independent experiments were shown unless otherwise indicated.
(§3) siRNA transfection: Cells were seeded into 25-cm^2 flasks and cultured for 24 h to reach ˜60% confluence using antibiotics-free media. Then, cells were transfected with anti-Luc siRNA-1 (targeting luciiferase) or ON-TARGETplus SMARTpool siRNA against PERK or GCN2 using the DharmaFECT siRNA transfection reagent #2 (Dharmacon). Twenty-four hours after transfection, cells were collected and re-seeded onto 6-well or 24-well plates and drug-treated for immunoblotting or cytotoxicity analyses, respectively.

[3] = tested on: PERK−/− MEFs; test: Cell death analysis in PERK knock-out MEFs; format: cell-based, mouse
From the text: as §1
Growth inhibition and Cytotoxicity assays: Cells were seeded onto 24-well plates and cultured for 18-22 h. After drug exposure for 48 hours, attached cells and their respective culture media were collected and centrifuged at 400 g for 5 min. The pellets were then resuspended in Hanks Balanced Salt Solution (HBSS) (Mediatech) and analyzed with Vi-Cell cell viability analyzer (Beckman Coulter) based on trypan blue exclusion. Results were shown as the percentages of dead cells out of total cells counted. Data were the averages of triplicate samples +SD from one representative experiment out of at least three independent analyses unless otherwise indicated.
as §3

[4] = tested on: PERK+/+ MEFs; test: Cell death analysis in wild type MEFs; format: cell-based, mouse; details: similar conditions as for PERK−/− cells
From the text: as §1
(§4) Growth inhibition and Cytotoxicity assays: Cells were seeded onto 24-well plates and cultured for 18-22 h. After drug exposure for 48 hours, attached cells and their respective culture media were collected and centrifuged at 400 g for 5 min. The pellets were then resuspended in Hanks Balanced Salt Solution (HBSS) (Mediatech) and analyzed with Vi-Cell cell viability analyzer (Beckman Coulter) based on trypan blue exclusion. Results were shown as the percentages of dead cells out of total cells counted. […]

[5] = tested on: MEF eif2a A/A; test: Cell death analysis in MEFs with non-phosphorylatable eif2-α; format: cell-based, mouse; details: 48 hours
From the text: as §1, §4

[6] = tested on: eif2-α and GCN2 phosphorylation in PERK−/− MEFs; test: Western blot of phosphorylated eif2-α and GCN2 in PERK knock-out MEFs; format: cell-based, mouse
From the text: as §1, §2

[7] = tested on: MDA-MB-435 cells; test: Growth inhibition assay, Vi-Cell trypan blue exclusion; format: cell-based, human; details: 48 hours, equivalent doses, i.e. 0.3 mM and 2 mM
From the text: as §1, §4

## O=CC[C@@H](O)[C@H](O)[C@H](O)CO [2-DG, 2-Deoxy-D-glucose]
[1]
  tolerability in phase I trial: well-tolerated
[2]; 2-DG 0.2 mM and 2 mM, 24 hours
  eIF2a phosphorylation: phosphorylated (inhibited)
[2]; 2-DG 0.2 mM, 24 hours
  AMPK phosphorylation: phosphorylated
[2]; 2-DG, aerobic conditions
  levels of UPR chaperone GRP 78: increased levels
[3]; 48 hours
  toxicity of 2-DG in PERK−/− vs PERK+/+ MEFs: more toxic; also recorded: more sensitive
[4]
  2-DG toxicity in PERK+/+ cells with siRNA against GCN2 or increased glutamine: not increased
[5]
  sensitivity of eif2-α mutant MEFs to toxic effects of 2-DG vs parental: more sensitive
[6]; 2-DG 2 and 8 mM, 4 mM glutamine, 24 hours
  GCN2 phosphorylation induced by 2-DG: induces phosphorylation of GCN2
[6]; as a function of time of treatment with 2-DG
  phosphorylated eif2-α levels in PERK−/− vs PERK+/+ cells: significantly lower levels

## O=C[C@H](F)[C@@H](O)[C@H](O)[C@H](O)CO [2-FDG, 2-fluoro-deoxy-D-glucose]
[2]; equivalent doses, 0.3 mM and 2 mM
  induction of UPR marker GRP 78 compared with 2-DG: less induction
[3]; doses that do not induce ER stress but block glycolysis, 48 hours
  toxicity of 2-FDG in PERK−/− cells: very little or no toxicity
[7]
  growth inhibitory activity compared with 2-DG: significantly less growth inhibitory activity than 2-DG

## NC(=O)CC[C@H](N)C(=O)O [glutamine]
[3]; 8 mM glutamine, 2-DG 48 hours
  2-DG toxicity in PERK−/− cells in 8 mM vs 4 mM glutamine: increased toxicity
[6]; 2-DG treated PERK−/− cells, exogenous glutamine
  eif2-α phosphorylation with exogenous glutamine: reduces
[6]; glutamine increased to 8 mM
  2-DG induced GCN2 phosphorylation with exogenous glutamine: attenuated
